For one data set, the system named is c-Raf. Set-up: method as in SelleckChem. The following applies: ref SelleckChem; cited from earlier work.
The test system of the next data set is CSF-1R. Set-up: method as in SelleckChem. The following applies: ref SelleckChem; cited from earlier work.
In another data set the test system is LCK. More on the design: method as in SelleckChem. The following applies: ref SelleckChem; cited from earlier work.
The subject of a further data set is Flt1. Set-up: method as in SelleckChem. The following applies: ref SelleckChem; cited from earlier work.
The subject of data set [1] is BT549 cells. Put plainly: Cell cycle analysis by PI flow cytometry. The class given is cell-based, human. The following applies: BT549, 5 μM. For orientation: Flow cytometry measures light scatter and fluorescence of single cells or particles in a stream.
In data set [2] the test system is MDA-MB-231 cells. The data set can be described thus: CASPASE 3/7 DEVD assay. The following applies: MDA-MB-231, 5 μM NCK.
The subject of data set [3] is BT549 cells. The data set can be described thus: Total cell number assay, 2D culture. The class given is cell-based, human. The protocol: (§1) Fold difference was calculated. Data represent means ± SD (n = 3).
Data set [4] deals with MDA-MB-231 cells. Put plainly: Total cell number assay, 2D culture. The format is cell-based, human. As to the method: as §1
The test system of data set [5] is MDA-MB-231 cells. The data set can be described thus: Cell survival after siRNA-BAD or scrambled control and NCK. The class given is cell-based, human. The source says:
To confirm the functional specificity of NCK to BAD, the effect of NCK treatment after siRNA-mediated depletion of BAD expression was examined in MDA-MB-231 cells. […] Consistent with previous findings[32]–[34], no significant changes in cell viability nor CASPASE 3/7 activity were observed upon transfection of siRNA directed to the BAD transcript (Fig. 2g–i).

In data set [6] the test system is MDA-MB-231 cells. The data set can be described thus: AlamarBlue cell viability, 3D Matrigel culture. The class given is cell-based, human. In general terms: Alamar Blue is a resazurin reagent that responds to reducing activity.
The subject of another data set is 4T1-luciferase cells. The protocol: Since metastasis is the primary contributor to mortality and poor prognosis for TNBC patients, the therapeutic potential of NCK, TKIs or combined NCK-TKI treatment on TNBC metastasis was further evaluated with an experimental lung metastasis model.
In vivo bioluminescent imaging was performed to determine the incidence and metastatic burden of luciferase-labeled 4T1 cells. Mice were injected i.p. with 10 mg/ml of D-luciferin (Gold Biotechnology, MO, USA) and imaged using a PerkinElmer IVIS Spectrum system. PDX were generated as previously described by transplanting fresh fragments orthotopically into 8-week-old female nonobese diabetic (NOD)/severe combined immunodeficient (SCID) mice (Beijing Vital River Laboratory Animal Technology Co., Beijing, China) (P1, passage 1)[40]. The P1 xenografts were then fragmented, digested into single-cell suspension and implanted into mammary fat pad (100 μL PBS containing growth factor reduced 50% Matrigel) of NOD/SCID mice. Once orthotopic xenografts reached an approximate size of 100 mm^3, the mice were randomly divided into three groups (n = 8) for single drug studies and six groups (n = 6) for combination studies and Kaplan-Meier (KM) analyses. […] Animal body weight and xenograft size were measured daily using an electronic balance and a digital caliper, respectively. Xenograft volume (mm^3) was calculated by using the formula: 0.52 × length × [width]^2. Complete response (CR) was achieved if the average xenograft volume for the treatment group was unable to be determined for two or more consecutive measurements. Partial response (PR) was achieved if the average xenograft volume reduced to <50 mm^3 for two or more consecutive measurements. After 3-week drug treatment, all mice were sacrificed by CO2 inhalation. Tumor and vital organs were weighed and isolated for further analysis. IHC analysis of xenograft histology sections and quantitative polymerase chain reaction (qPCR) were performed as previously described. […] For PDX, xenograft growth was monitored daily by measurement of the xenograft volume until mice humane endpoint ( ~ 1000 mm^3).
luciferase cell generated metastasis model. Scale bar, 20 µm. (C) Animal weight of each
treatment group was indicated. (D) Changes in relative lung, liver, spleen, heart and kidney
(CRI) or combinations during the study at day 9.

The subject of the next data set is TNBC cell lines. Put plainly: 2D total cell number and 3D viability in eight TNBC cell lines. The class given is cell-based, human.
The test system of data set [7] is BT549 cells. Put plainly: Annexin V-PI apoptosis flow cytometry. The following applies: BT549, 5 μM.
Source text: (§6) Representative flow cytometry plots of Annexin-V and propidium iodide (PI) stained apoptotic
(§7) or NPB using flow cytometry analysis. Annexin V-FITC staining is indicated on the x axis, and PI staining is indicated on the y axis. The lower left quadrants represent live cells, the lower right quadrants represent early apoptotic cells, the upper left quadrants represent necrotic cells, and the upper right quadrants display late apoptotic cells. Acquisition of Annexin V and PI data are presented as a percentage (%) in each quadrant. Early apoptotic cells are referred to as Annexin- V positive and late apoptotic cells are referred to as Annexin-V and PI double positive.
Data set [8] concerns BT549 cells. The data set can be described thus: AlamarBlue assay IC50 (Supplementary Fig. 5A). The class given is cell-based. The following applies: Homo sapiens, BT-549. The source says: (§2) Ionization potential (I ) 7.21 eV
(§3) Electron affinity (A) 4.79 eV
(§4) Chemical potential (μ) 6.00 eV […]
(§5) using AlamarBlue assay. Data represent means ± SD. (B) Cartoon representation of the compounds NPB (red) and NCK (black) (depicted in ball & stick model) docked to the BAD protein, occupying the same groove with the BAD Serine 99 residue (yellow) nearby. (C) 2D structure representation of compound NPB interacting with BAD protein residues. (D) Cartoon representation of docked compound and molecular electrostatic potential surfaces of NCK. The color code of the compound lies in the range of -0.121e0 to +0.121e0. Red and blue color in the MEP structure point to more electron rich and electron poor regions respectively. (E) The […]

Data set [9] deals with MDA-MB-231 cells. Put plainly: AlamarBlue assay IC50 (Supplementary Fig. 5A). The format is cell-based. The following applies: Homo sapiens; MDA-MB-231, AlamarBlue assay.
Source text: as §2, §3, §4, §5

A further data set deals with T1, Recombinant human BAD (Homo sapiens, UniProt Q92934).
T1 construct: purchased Novoprotein, Suzhou, China
Put plainly: SPR (BIAcore) with BAD immobilized on sensor chip. The class given is binding. The following applies: analyte 1.25–160 μM. As to the method: To compare the binding affinity of NCK and NPB towards BAD, we performed surface plasmon resonance (SPR) measurement by immobilizing BAD protein on a sensor chip with NCK or NPB as analyte. Representative reference-subtracted overlaid sensorgrams and the kinetic parameters are specified in Fig. 2d and Supplementary Fig. 6A. […] Additionally, the pharmacological inhibition of BAD phosphorylation by NCK or NPB in TNBC cells was evaluated. […] Furthermore, the comparative potencies of NPB and NCK were evaluated in eight TNBC cell lines using total cell number assay in 2D culture and cell viability in 3D culture (Supplementary Fig. 6C, D).
On the technique in general: Surface plasmon resonance follows binding to a sensor surface in real time, without labels.

The subject of data set [10] is MDA-MB-231 cells. The data set can be described thus: Annexin V-PI apoptosis flow cytometry. The following applies: MDA-MB-231, 5 μM.
Source text: as §6, §7
Setting [11] is: BALB/c mice, day 9, NCK 20 mg/kg, OSI 50 mg/kg, CRI 50 mg/kg.

Molecules are shown by their SMILES.

T1 sequence (Q92934 whole entry): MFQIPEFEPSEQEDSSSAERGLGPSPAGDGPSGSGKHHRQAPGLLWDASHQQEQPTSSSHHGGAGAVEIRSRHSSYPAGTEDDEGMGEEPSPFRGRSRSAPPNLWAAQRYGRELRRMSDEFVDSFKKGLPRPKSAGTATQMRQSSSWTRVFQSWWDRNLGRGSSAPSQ

The IC50 is the concentration needed to halve the response being measured. As to `O=C(Nc1ccc(OC(F)(F)F)cc1)c1sccc1NCc1ccnc2ccccc12` [OSI-930], the IC50 is 41 nM with c-Raf, 15 nM with CSF-1R, 22 nM in the data set with LCK and 8 nM in the data set on Flt1.

Broadly, the Kd is the equilibrium constant for the complex coming apart. Regarding `Oc1ccccc1C(c1cccnc1)N1CCN(c2cccc(Cl)c2Cl)CC1` (centres unmarked) [NCK, 2-((4-(2,3-dichlorophenyl)piperazin-1-yl)(pyridin-3-yl)methyl) phenol], the “decrease in S-phase” value in the data set on BT549 cells [1] came to 27.12%. In the data set on BT549 cells [1], the “increase in G1-phase” value came to 30.43%. Besides, the “CASPASE 3/7 activity vs vehicle” value with MDA-MB-231 cells [2] is on record as “increased CASPASE 3/7 activity”. The “fold IC50 difference NCK vs NPB” value is ~ 2 fold with BT549 cells [3] (BT549, 2D); ~ 3 fold in the data set with MDA-MB-231 cells [4] (MDA-MB-231, 2D); ~ 6 fold with MDA-MB-231 cells [6] (MDA-MB-231, 3D Matrigel). Besides, the half-inhibitory concentration (IC50) was 1700 nM in the data set on BT549 cells [3] (Homo sapiens, BT-549, BT549, 2% FBS); 1010 nM in the data set with MDA-MB-231 cells [4] (Homo sapiens, MDA-MB-231, 2% FBS); 239 nM with MDA-MB-231 cells [6] (Homo sapiens, MDA-MB-231, 3D Matrigel, AlamarBlue); 12100 ± 1360 nM in the data set with BT549 cells [8]; 4940 ± 2800 nM in the data set on MDA-MB-231 cells [9]. Moreover, the “cell viability vs vehicle” value with MDA-MB-231 cells [5] (MDA-MB-231, 5 μM NCK) was “decreased cell viability”. Besides, the “effect on cell viability and CASPASE 3/7 activity after siRNA-mediated depletion of BAD” value in the data set on MDA-MB-231 cells [5] (MDA-MB-231, siRNA-BAD, 5 μM NCK) is “abolished the effect of NCK”. Besides, in the data set on MDA-MB-231 cells [6] (MDA-MB-231, 5 μM each), the “growth in 3D Matrigel” value is recorded as “reduced cell growth in 3D Matrigel”. For the same molecule, the “lung metastases (bioluminescent signals) vs control” value in the data set on 4T1-luciferase cells (4T1-luciferase metastasis model) is listed as “significantly abrogated lung metastases”. Besides, the “Relative Heart Weight” value with 4T1-luciferase cells (setting [11]) was 0.51±0.07%. The “Relative Kidney Weight” value in the data set on 4T1-luciferase cells (setting [11]) worked out at 1.40±0.07%. The “Relative Liver Weight” value in the data set on 4T1-luciferase cells (setting [11]) came to 4.55±0.21%. In the data set with 4T1-luciferase cells (setting [11]), the “Relative Lung Weight” value amounted to 1.70±0.49%. For the same molecule, the “Relative Spleen Weight” value with 4T1-luciferase cells (setting [11]) was 1.54±0.54%. Further, the “potency vs NPB in reducing 2D and 3D cell viability” value with TNBC cell lines was “more potent than NPB”. Also, the “induction of apoptosis (early and late)” value with BT549 cells [7] and in the data set with MDA-MB-231 cells [10] was “more potent effect than NPB in inducing apoptosis” in each case. On Recombinant human BAD (read-out: Affinity (KD)), the Kd was determined as 48.1 nM. For the same molecule, the kon at Recombinant human BAD (read-out: Association (Ka)) worked out at 111000 M⁻¹ s⁻¹.

The values above are taken from paper PMC10781691, “Vertical pathway inhibition of receptor tyrosine kinases and BAD with synergistic efficacy in triple negative breast cancer” (NPJ Precision Oncology, 2024).
